Where “and” joins values, the source holds several entries; their conditions need not be identical. Identical values can stand only once.
Experiments:
Format in all cases: cell-based
Pythium ultimum = Pythium ultimum (Damping Off) growth inhibition, microtiter plate, photometric; details: single compound at 0.125 ppm AI
Method: Pythium ultimum (Damping Off):
Mycelial fragments of the fungus, prepared from a fresh liquid culture, were directly mixed into nutrient broth (potato dextrose broth). After placing a (DMSO) solution of the test compounds into a microtiter plate (96-well format) the nutrient broth containing the fungal spores was added.

Rhizoctonia solani = Rhizoctonia solani (Foot Rot, Damping-Off) growth inhibition, microtiter plate, photometric
Method: Rhizoctonia solani (Foot Rot, Damping-Off):
Mycelial fragments of the fungus from cryogenic storage were directly mixed into nutrient broth (potato dextrose broth). After placing a (DMSO) solution of the test compounds into a microtiter plate (96-well format) the nutrient broth containing the fungal spores was added.

Gaeumannomyces graminis = Gaeumannomyces graminis growth inhibition, microtiter plate, photometric
Method: Mycelial fragments of the fungus from cryogenic storage were directly mixed into nutrient broth (potato dextrose broth). After placing a (DMSO) solution of the test compounds into a microliter plate (96-well format) the nutrient broth containing the fungal spores was added.

[1] = test system: Glomerella lagenarium (syn. Colletotrichum lagenarium); assay: Glomerella lagenarium (Anthracnose of Cucurbits) growth inhibition, microtiter plate, photometric; details: alone
Method: Glomerella lagenarium (syn. Colletotrichum lagenarium), Anthracnose of Cucurbits:
(§1) Conidia of the fungus from cryogenic storage were directly mixed into nutrient broth (potato dextrose broth). After placing a (DMSO) solution of the test compounds into a microtiter plate (96-well format) the nutrient broth containing the fungal spores was added.

Septoria tritici = Septoria tritici (Leaf Blotch) growth inhibition, microtiter plate, photometric
Method: Septoria tritici (Leaf Blotch):
as §1

[2] = test system: Mycosphaerella arachidis (syn. Cercospora arachidicola); assay: Mycosphaerella arachidis (Brown Leaf Spot of Groundnut) growth inhibition, microtiter plate, photometric; details: alone
Method: Mycosphaerella arachidis (syn. Cercospora arachidicola), Brown Leaf Spot of Groundnut (Peanut):
as §1

Fusarium culmorum = Fusarium culmorum (Root Rot) growth inhibition, microtiter plate, photometric; details: alone
Method: Fusarium culmorum (Root Rot):
as §1

[3] = single compound at 0.0625 ppm AI
[4] = single compound at 0.125 ppm AI

CO/C=C(/C(=O)OC)c1ccccc1Oc1cc(Oc2ccccc2C#N)ncn1 [Azoxystrobin, reference compound]
90%: AVERAGE DEAD IN % (Gaeumannomyces graminis; single compound at 0.5 ppm AI) | AVERAGE DEAD IN % (Gaeumannomyces graminis; single compound at 1 ppm AI) | AVERAGE DEAD IN % (Gaeumannomyces graminis; single compound at 2 ppm AI) | AVERAGE DEAD IN % (Septoria tritici; 0.125 ppm AI, alone) | AVERAGE DEAD IN % Azoxystrobin (Septoria tritici; Azoxystrobin alone, 0.125 ppm AI) | AVERAGE DEAD IN % (Septoria tritici; alone, 0.125 ppm AI) | AVERAGE DEAD IN % ([2]; 0.125 ppm AI) | AVERAGE DEAD IN % ([2]; 0.0625 PPM AI)
50%: AVERAGE DEAD IN % (Gaeumannomyces graminis; applied alone, 0.5 ppm AI) | AVERAGE DEAD IN % (Gaeumannomyces graminis; applied alone, 1 ppm AI) | AVERAGE DEAD IN % (Gaeumannomyces graminis; applied alone, 2 ppm AI) | AVERAGE DEAD IN % (Gaeumannomyces graminis; [3]) | AVERAGE DEAD IN % ([1]; 0.03125 ppm AI) | AVERAGE DEAD IN % (Septoria tritici; 0.03125 ppm AI, alone) | AVERAGE DEAD IN % (Septoria tritici; alone, 0.03125 ppm AI)
50% and 70%: AVERAGE DEAD IN % ([2]; 0.03125 PPM AI)
70%: AVERAGE DEAD IN % (Gaeumannomyces graminis; [4]) | AVERAGE DEAD IN % (Gaeumannomyces graminis; single compound at 0.25 ppm AI) | AVERAGE DEAD IN % (Septoria tritici; 0.0625 ppm AI, alone) | AVERAGE DEAD IN % Azoxystrobin (Septoria tritici; Azoxystrobin alone, 0.0625 ppm AI) | AVERAGE DEAD IN % (Septoria tritici; alone, 0.0625 ppm AI)
100% and 50%: AVERAGE DEAD IN % (Gaeumannomyces graminis; single compound at 0.03125 ppm AI)
0%: AVERAGE DEAD IN % (Pythium ultimum) | AVERAGE DEAD IN % (Gaeumannomyces graminis; applied alone, 0.00390625 ppm AI) | AVERAGE DEAD IN % (Gaeumannomyces graminis; applied alone, 0.0078125 ppm AI) | AVERAGE DEAD IN % (Gaeumannomyces graminis; applied alone, 0.015625 ppm AI) | AVERAGE DEAD IN % (Gaeumannomyces graminis; applied alone, 0.03125 ppm AI) | AVERAGE DEAD IN % (Gaeumannomyces graminis; applied alone, 0.0625 ppm AI) | AVERAGE DEAD IN % ([1]; 0.0078125 ppm AI) | AVERAGE DEAD IN % (Septoria tritici; alone, 0.0078125 ppm AI) | AVERAGE DEAD IN % ([2]; 0.0078125 ppm AI) | AVERAGE DEAD IN % ([2]; 0.015625 ppm AI) | AVERAGE DEAD IN % ([2]; 0.0078125 PPM AI) | AVERAGE DEAD IN % (Fusarium culmorum; 0.5 PPM AI)
70% and 50%: AVERAGE DEAD IN % ([2]; 0.0625 ppm AI)
90% and 50%: AVERAGE DEAD IN % (Gaeumannomyces graminis; single compound at 0.015625 ppm AI)
20%: AVERAGE DEAD IN % (Rhizoctonia solani; applied alone, 0.125 ppm AI) | AVERAGE DEAD IN % (Rhizoctonia solani; applied alone, 0.25 ppm AI) | AVERAGE DEAD IN % (Rhizoctonia solani; applied alone, 0.5 ppm AI) | AVERAGE DEAD IN % (Rhizoctonia solani; applied alone, 1 ppm AI) | AVERAGE DEAD IN % (Rhizoctonia solani; applied alone, 2 ppm AI) | AVERAGE DEAD IN % (Rhizoctonia solani; [3]) | AVERAGE DEAD IN % (Rhizoctonia solani; [4]) | AVERAGE DEAD IN % (Rhizoctonia solani; single compound at 0.25 ppm AI) | AVERAGE DEAD IN % (Rhizoctonia solani; single compound at 0.5 ppm AI) | AVERAGE DEAD IN % (Rhizoctonia solani; single compound at 1 ppm AI) | AVERAGE DEAD IN % (Rhizoctonia solani; single compound at 2 ppm AI) | AVERAGE DEAD IN % (Gaeumannomyces graminis; applied alone, 0.125 ppm AI) | AVERAGE DEAD IN % (Gaeumannomyces graminis; applied alone, 0.25 ppm AI) | AVERAGE DEAD IN % (Gaeumannomyces graminis; single compound at 0.00390625 ppm AI) | AVERAGE DEAD IN % ([1]; 0.015625 ppm AI) | AVERAGE DEAD IN % (Septoria tritici; 0.015625 ppm AI, alone) | AVERAGE DEAD IN % Azoxystrobin (Septoria tritici; Azoxystrobin alone, 0.015625 ppm AI) | AVERAGE DEAD IN % (Septoria tritici; alone, 0.015625 ppm AI) | AVERAGE DEAD IN % ([2]; 0.015625 PPM AI) | AVERAGE DEAD IN % (Fusarium culmorum; 1 PPM AI) | AVERAGE DEAD IN % (Fusarium culmorum; 2 PPM AI)

From US20120324604A1, “PESTICIDAL MIXTURES CONTAINING ISOXAZOLINE DERIVATIVES AND A FUNGICIDE” (priority 2010, published 2012)
